How the values were obtained:
C. acetobutylicum = experiment: Calculated optimum peptide treatment level (polynomial curve fitted to butanol concentration vs treatment level per culture transfer); type: cell-based, Clostridium acetobutylicum; details: for Calculated Optimum Peptide Level, Average / Average optimum peptide treatment level: average over culture transfers; for Average optimum peptide treatment level: both experiments for BP110517, single non-inhibitory experiment for BP1106213, fairly large standard deviations; for Calculated optimum peptide treatment level: first experiment using BP110517
Text: FIG. 20. Calculation of optimum peptide treatment level for transfer 13 of the first experiment that tested peptide BP110517 (SEQ ID NO:143) (see Table 1 for data). The four butanol concentration data points were graphed against the treatment levels and a polynomial curve was fitted to the graph.
The data from the sequential batch culture experiments treated with peptides BP110517 and BP1106213 were used to calculate optimum peptide treatment levels for enhanced butanol production by C. acetobutylicum. The calculation was made for each culture transfer using the butanol concentration results from control and experimental wells. The four data points for each culture transfer were graphed against the treatment levels, and a polynomial curve was fitted to the graph.
Then, the first derivative of the polynomial fitted to the data for each culture transfer was solved for “x”, which was the maximum point of the fitted polynomial curve (Table 46). The resulting peptide concentration value was assumed to be close to an optimum peptide treatment level that would result in enhanced butanol production.

[1] = test system: C. acetobutylicum ATCC 824; experiment: Germination and sequential batch cultures of C. acetobutylicum ATCC 824 grown at 37° C. (growth OD600, final pH, ceric ion reactive compounds); type: cell-based, Clostridium acetobutylicum
Procedure: Clostridium acetobutylicum ATCC 824 and C. beijerinckii NCIMB 8052 are available from several commercial microbial culture collections including the American Type Culture Collection (ATCC), Manassas, Va., USA. The strain grown at 30 C or 37 C in YE broth, which contained, per liter: 5.0 g yeast extract, 2.5 g casamino acids, 1.0 g L-asparagine, 0.5 g cysteine·HCl, 56 mg K2HPO4, 56 mg KH2PO4, 82 mg anhydrous MgSO4, 8 mg FeSO4.H2O, 6 mg MnSO4.H2O and 10 g glucose. Alternatively, strains were grown in YEPG broth, which was identical to YE expect that K2HPO4 and KH2PO4 were increased to 145 mg/L each and glucose was increased to 60 g/L. The pH of the media was adjusted to 7.2 using 45% KOH prior to sterilization by autoclaving. Media were solidified by addition of 1.5% Bacteriological Agar, Acumedia Manufacturers, Inc., Lansing, Mich. All cultures were grown in anaerobic conditions using the AnaeroPack System, Mitsubishi Gas Chemical Co., Inc., Japan, and GasPak EZ Gas Generating Sachets, Becton, Dickinson and Co., Sparks, Md. Spore stocks were kept at room temperature on agar-solidified media and were activated by suspending spores in 0.5 mL to 1.0 mL of medium followed by heating for 10 min at 80 C before inoculation into growth medium.
Growth of bacterial cultures was measured spectrophotometrically using optical density at 600 nm and pH of cell-free culture supernatants was measured using a hand-held Shindengen ISFET pH Meter KS501, Shendengen Electric Manufacturing Co., Ltd., Bannockburn, Ill.
Total alcohols in cell-free culture supernatants were measured using a modification of a colorimetric method based on ceric ammonium nitrate (Reid and Truelove, 1952). The ceric ion reagent was prepared by adding 1.3 mL of concentrated nitric acid to 40 mL of distilled water, then 10.96 g of ceric ammonium nitrate was dissolved in the dilute nitric acid solution and the solution was brought to a final volume of 50 mL. For the assay, […] of butanol standard or culture supernatant was mixed with […] distilled water in a disposable plastic cuvette followed by addition of […] of the ceric ion reagent. The sample was mixed by inverting the cuvette six times then exactly two minutes later the optical density at 500 nm wavelength was measured. The concentration of total alcohols was determined by comparison with a standard curve prepared by using butanol diluted in distilled water.
Spores of C. acetobutylicum ATCC 824 were germinated and grown overnight at 37 C under anaerobic conditions in YEPG medium that either contained 50 nM of peptide SEQ ID NO: 143 or no added peptide. After about 24 h of growth, […] of the untreated culture was transferred (transfer 1) to each of two flasks that contained 10 mL of YEPG with either no treatment or with 50 nM peptide SEQ ID NO: 143. At the same time, 10 μL of the culture that was germinated in the presence of peptide SEQ ID NO: 143 was also transferred to 10 mL of YEPG that contained 50 nM of peptide SEQ ID NO: 143. Thereafter, […] of each culture was transferred, at the same time, every 24-48 h to 10 mL of fresh YEPG that contained the same peptide treatment or no treatment. Each culture was stopped after 72 hours if incubation and optical density, pH and ceric ion reactive chemicals were measured. Sequential batch culturing was continued through 3 transfers at which point the untreated culture and the culture that was germinated and transferred in 50 nM of peptide were still growing, while the culture that was treated with peptide after germination had stopped growing (Table 15 and FIG. 7).

[2] = 50 nM added after germination, transfer 1, 72 h culture
[3] = 50 nM added after germination, transfer 2, 72 h culture
[4] = 50 nM added after germination, transfer 3, 72 h culture
[5] = 50-50 (germinated and transferred in 50 nM), transfer 1, 72 h culture
[6] = 50-50 (germinated and transferred in 50 nM), transfer 2, 72 h culture
[7] = 50-50 (germinated and transferred in 50 nM), transfer 3, 72 h culture
[8] = 50-50 (spores germinated in 50 nM peptide), transfer 0 (germinated culture), 72 h culture

SYPGWSW [peptide SEQ ID NO: 143]
Calculated Optimum Peptide Level, Average (C. acetobutylicum; Expt. 1): 48.5 ± 9.9 nM | Calculated Optimum Peptide Level, Average (C. acetobutylicum; Expt. 2): 43.9 ± 31.6 nM | Average optimum peptide treatment level (C. acetobutylicum): mid to high 40 | Calculated optimum peptide treatment level (C. acetobutylicum; transfer 4): 38.7 nM | Calculated optimum peptide treatment level (C. acetobutylicum; transfer 22): 62.9 nM | Calculated Optimum Peptide Level (C. acetobutylicum; transfer 4, Expt. 1): 38.7 nM | Calculated Optimum Peptide Level (C. acetobutylicum; transfer 7, Expt. 1): 37.3 nM | Calculated Optimum Peptide Level (C. acetobutylicum; transfer 7, Expt. 2): 100 nM | Calculated Optimum Peptide Level (C. acetobutylicum; transfer 10, Expt. 1): 56.6 nM | Calculated Optimum Peptide Level (C. acetobutylicum; transfer 10, Expt. 2): 35.6 nM | Calculated Optimum Peptide Level (C. acetobutylicum; transfer 13, Expt. 1): 40.4 nM | Calculated Optimum Peptide Level (C. acetobutylicum; transfer 13, Expt. 2): 28.6 nM | Calculated Optimum Peptide Level (C. acetobutylicum; transfer 16, Expt. 1): 51.2 nM | Calculated Optimum Peptide Level (C. acetobutylicum; transfer 16, Expt. 2): 26.8 nM | Calculated Optimum Peptide Level (C. acetobutylicum; transfer 19, Expt. 1): 52.5 nM | Calculated Optimum Peptide Level (C. acetobutylicum; transfer 19, Expt. 2): 28.3 nM | Calculated Optimum Peptide Level (C. acetobutylicum; transfer 22, Expt. 1): 62.9 nM | Final pH [1, 2]: 4.4 | Optical density at 600 nm [1, 2]: 1.891 | Optical density of ceric ion reactive compounds measured at 500 nm [1, 2]: 0.116 | Final pH [1, 3]: 6.0 | Optical density at 600 nm [1, 3]: 0.011 | Optical density of ceric ion reactive compounds measured at 500 nm [1, 3]: 0.000 | Final pH [1, 4]: 5.5 | Optical density at 600 nm [1, 4]: 0.100 | Optical density of ceric ion reactive compounds measured at 500 nm [1, 4]: 0.001 | Growth in sequential transfers ([1]; 50 nM added after germination, untreated survived through 3 transfers): did not grow beyond the first transfer | Culture degeneration in terms of production of total alcohols ([1]; 50 nM peptide treatment during germination and growth): prevented culture degeneration | Final pH [1, 5]: 4.5 | Optical density at 600 nm [1, 5]: 1.715 | Optical density of ceric ion reactive compounds measured at 500 nm [1, 5]: 0.152 | Final pH [1, 6]: 3.8 | Optical density at 600 nm [1, 6]: 1.858 | Optical density of ceric ion reactive compounds measured at 500 nm [1, 6]: −0.063 | Final pH [1, 7]: 4.6 | Optical density at 600 nm [1, 7]: 1.485 | Optical density of ceric ion reactive compounds measured at 500 nm [1, 7]: 0.138 | Final pH [1, 8]: 4.1 | Optical density at 600 nm [1, 8]: 2.121 | Optical density of ceric ion reactive compounds measured at 500 nm [1, 8]: 0.028

ILILISG (Derived from Clostridium acetobutylicum SEQ ID NO: 110) [peptide SEQ ID NO: 144]
Calculated Optimum Peptide Level, Average (C. acetobutylicum; Expt. 1): 46.2 ± 10.7 nM | Calculated Optimum Peptide Level, Average (C. acetobutylicum; Expt. 2): 40.5 ± 3.8 nM | Average optimum peptide treatment level (C. acetobutylicum): mid to high 40 | Calculated Optimum Peptide Level (C. acetobutylicum; transfer 4, Expt. 1): 46.0 nM | Calculated Optimum Peptide Level (C. acetobutylicum; transfer 4, Expt. 2): Inhib. | Calculated Optimum Peptide Level (C. acetobutylicum; transfer 7, Expt. 1): 32.4 nM | Calculated Optimum Peptide Level (C. acetobutylicum; transfer 7, Expt. 2): Inhib. | Calculated Optimum Peptide Level (C. acetobutylicum; transfer 10, Expt. 1): 49.0 nM | Calculated Optimum Peptide Level (C. acetobutylicum; transfer 10, Expt. 2): Inhib. | Calculated Optimum Peptide Level (C. acetobutylicum; transfer 13, Expt. 1): Inhib.^d | Calculated Optimum Peptide Level (C. acetobutylicum; transfer 13, Expt. 2): 43.2 nM | Calculated Optimum Peptide Level (C. acetobutylicum; transfer 16, Expt. 1): 50.7 nM | Calculated Optimum Peptide Level (C. acetobutylicum; transfer 16, Expt. 2): Inhib. | Calculated Optimum Peptide Level (C. acetobutylicum; transfer 19, Expt. 1): 36.8 nM | Calculated Optimum Peptide Level (C. acetobutylicum; transfer 19, Expt. 2): Inhib. | Calculated Optimum Peptide Level (C. acetobutylicum; transfer 22, Expt. 1): 62.4 nM | Calculated Optimum Peptide Level (C. acetobutylicum; transfer 22, Expt. 2): 37.8 nM
